Experimental data: ChEMBL document CHEMBL1150368, “Detection of triplet repeat sequences in the double-stranded DNA using pyrene-functionalized pyrrole-imidazole polyamides with rigid linkers” (Bioorg Med Chem, 2008)

Experiment: Binding affinity to biotinylated hairpin DNA by surface plasmon resonance assay

Kd: 837 nM
SMILES: CC(=O)Nc1cn(C)c(C(=O)Nc2cc(C(=O)NCCC(=O)Nc3cn(C)c(C(=O)Nc4cc(C(=O)NCCCC(=O)Nc5cn(C)c(C(=O)Nc6cc(C(=O)NCCC(=O)Nc7cn(C)c(C(=O)Nc8cc(C(=O)NCCC(=O)NCCCN(C)C)n(C)c8)n7)n(CC#Cc7ccc8ccc9cccc%10ccc7c8c9%10)c6)n5)n(CC#Cc5ccc6ccc7cccc8ccc5c6c78)c4)n3)n(C)c2)n1
